From ChEMBL document CHEMBL1151345, “Isolation of a new potential antitumor compound from Wedelia asperrima” (J Nat Prod, 1980)
Calls of active or inactive are those of the source. The rule behind the calls is not given here.

What was measured:
[1] = species: Rattus norvegicus; experiment: Toxicity in Wistar rat; assay type: organism-based; settings: in vivo
[2] = tested on: Mus musculus; experiment: Toxicity in ip dosed mouse; assay type: organism-based; settings: in vivo
[3] = species: Rattus norvegicus; experiment: Antitumor activity against aflatoxin B1-induced tumor in Wistar rat at 30 ug for 8 weeks; assay type: functional, organism-based

Compound | LD100 [1] | LD100 [2] | Activity [3]
C=C1[C@H](O)[C@]23CC[C@H]4C(C(=O)O)(C(=O)O)C[C@@H](O[C@@H]5O[C@H](CO)[C@@H](O[C@@H]6O[C@@H](C)[C@H](O)[C@@H](O)[C@H]6O)[C@H](OC(=O)CCc6ccccc6)[C@H]5NC(=O)CC(C)C)C[C@]4(C)[C@H]2CC[C@@]1(O)C3 | 1 mg/kg | 1 mg/kg | –
C=C1[C@H](O)[C@]23CC[C@H]4C(C(=O)O)(C(=O)O)C[C@@H](O[C@@H]5O[C@H](CO)[C@@H](O)[C@H](OC(=O)CCc6ccccc6)[C@H]5NC(=O)CC(C)C)C[C@]4(C)[C@H]2CC[C@@]1(O)C3 [WEDELOSIDE] | 1 mg/kg | 1 mg/kg | Active
